Test results from patent US8367687B2, “Pyrazole derivatives” (Novartis AG, priority 2007, dated 2013).
Read-outs that look alike come from different tables or passages of the source.

How the values were obtained:
Format in all cases: biochemical
hCDK1/B = hCDK1/B (Homo sapiens, UniProt P06493); assay: hCDK1/B
CDK4 = CDK4 (Homo sapiens, UniProt P11802); assay: CDK4 HTRF
CDK2 cyA = CDK2 cyA (Homo sapiens, UniProt P24941); assay: CDK2 cyA IMAP
[1] = Table 1, read-out: CDK2 cyA IMAP
[2] = Table 2, read-out: CDK4 HTRF/ IC50
[3] = Table 2, read-out: CDK2cyA IMAP/ IC50

Chain of CDK4 (P11802 whole entry): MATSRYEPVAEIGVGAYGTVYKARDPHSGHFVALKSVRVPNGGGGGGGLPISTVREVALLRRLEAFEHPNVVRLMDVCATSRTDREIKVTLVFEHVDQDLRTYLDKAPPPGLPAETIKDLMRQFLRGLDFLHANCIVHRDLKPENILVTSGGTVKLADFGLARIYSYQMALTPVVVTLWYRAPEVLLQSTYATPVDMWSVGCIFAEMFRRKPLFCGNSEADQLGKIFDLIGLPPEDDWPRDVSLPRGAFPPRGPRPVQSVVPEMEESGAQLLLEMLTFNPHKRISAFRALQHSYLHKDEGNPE
Chain of CDK4 (P24385 whole entry partner): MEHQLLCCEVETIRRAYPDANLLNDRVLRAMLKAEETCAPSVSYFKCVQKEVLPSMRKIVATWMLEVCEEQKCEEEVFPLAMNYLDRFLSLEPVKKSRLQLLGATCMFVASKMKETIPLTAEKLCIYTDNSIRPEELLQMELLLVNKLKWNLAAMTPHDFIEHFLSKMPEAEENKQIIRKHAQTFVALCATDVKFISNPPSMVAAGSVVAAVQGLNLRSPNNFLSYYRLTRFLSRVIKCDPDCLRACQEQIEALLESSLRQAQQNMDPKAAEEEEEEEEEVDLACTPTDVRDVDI
Chain of hCDK1/B (P06493 whole entry): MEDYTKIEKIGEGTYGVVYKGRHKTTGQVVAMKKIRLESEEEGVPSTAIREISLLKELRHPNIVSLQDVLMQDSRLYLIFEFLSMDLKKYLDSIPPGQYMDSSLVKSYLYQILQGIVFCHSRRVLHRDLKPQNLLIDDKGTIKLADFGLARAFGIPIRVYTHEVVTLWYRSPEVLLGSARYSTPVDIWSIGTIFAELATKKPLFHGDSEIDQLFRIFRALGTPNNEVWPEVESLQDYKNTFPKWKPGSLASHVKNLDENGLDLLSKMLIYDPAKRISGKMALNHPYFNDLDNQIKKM
Chain of hCDK1/B (P14635 whole entry partner): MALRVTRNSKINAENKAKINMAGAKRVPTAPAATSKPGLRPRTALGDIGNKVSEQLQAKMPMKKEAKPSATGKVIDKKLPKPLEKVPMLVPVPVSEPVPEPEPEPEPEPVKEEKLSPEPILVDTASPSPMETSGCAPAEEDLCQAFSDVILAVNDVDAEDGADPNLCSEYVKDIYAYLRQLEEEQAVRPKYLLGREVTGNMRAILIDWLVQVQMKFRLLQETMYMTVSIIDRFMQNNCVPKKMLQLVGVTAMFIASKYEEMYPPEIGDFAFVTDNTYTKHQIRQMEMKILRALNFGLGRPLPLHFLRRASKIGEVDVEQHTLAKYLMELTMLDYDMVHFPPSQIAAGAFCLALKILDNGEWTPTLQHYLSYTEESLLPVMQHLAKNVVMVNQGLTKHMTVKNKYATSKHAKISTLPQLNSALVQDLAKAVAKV

Row | Compound | IC50 (hCDK1/B; Table 1) | IC50 (CDK4; Table 1, read-out: CDK4 HTRF) | IC50 (CDK2 cyA; [1]) | IC50 (hCDK1/B; Table 2) | IC50 (CDK4; [2]) | IC50 (CDK2 cyA; [3])
1 | CC(C)c1[nH]ncc1-c1ccnc(NCc2ccc(F)cc2)c1 [Example 30] | < 5 µM | < 5 µM | < 5 µM | – | – | –
2 | COc1ccc(CNc2cc(-c3cn[nH]c3C(C)C)ccn2)cc1 [Example 34] | < 5 µM | < 5 µM | < 5 µM | – | – | –
3 | Cc1ccccc1CNc1cc(-c2cn[nH]c2C2CC2)ccn1 [Example 68] | < 5 µM | < 0.1 µM | < 5 µM | – | – | –
4 | CC(C)c1[nH]ncc1-c1ccnc(NCCCO)c1 [Example 23] | < 5 µM | < 5 µM | < 5 µM | – | – | –
5 | CC(C)(C)c1[nH]ncc1-c1ccnc(NC2CCc3ccccc32)c1 (stereo not drawn) [Example 75] | ≥ 15 µM | < 15 µM | ≥ 15 µM | – | – | –
6 | Cc1cccc(CNc2cc(-c3cn[nH]c3C(C)C)ccn2)c1 [Example 49] | < 5 µM | < 5 µM | < 5 µM | – | – | –
7 | Cc1nnc(CCNc2nccc(-c3c[nH]nc3C(C)C)n2)[nH]1 [Example 161] | – | – | – | < 5 µM | < 0.5 µM | < 5 µM
8 | CC(C)c1[nH]ncc1-c1ccnc(NCCCCN(C)C)c1 [Example 18] | ≥ 15 µM | < 5 µM | ≥ 15 µM | – | – | –
9 | Cc1n[nH]cc1-c1ccnc(NCCCn2ccnc2)n1 [Example 106] | – | – | – | < 5 µM | < 5 µM | < 10 µM
10 | Cc1cnc(NC2CCN(C)CC2)nc1-c1c[nH]nc1C(C)C [Example 184] | – | – | – | < 5 µM | < 0.5 µM | < 5 µM
11 | CC(C)c1[nH]ncc1-c1ccnc(NCC2CCCCCC2)c1 [Example 20] | < 5 µM | < 5 µM | < 5 µM | – | – | –
12 | CC(C)c1[nH]ncc1-c1ccnc(NC2CCN(Cc3ccccc3)CC2)c1 [Example 45] | < 15 µM | < 0.5 µM | ≥ 15 µM | – | – | –
13 | Cc1n[nH]cc1-c1ccnc(NC2Cc3ccccc3C2)n1 [Example 125] | – | – | – | < 5 µM | < 0.5 µM | < 5 µM
14 | CC(C)c1[nH]ncc1-c1ccnc(NCc2ccccc2)c1 [Example 4] | < 5 µM | < 1 µM | < 5 µM | – | – | –
15 | CCC(C)c1[nH]ncc1-c1ccnc(NC2CCc3ccccc32)c1 (stereo not drawn) [Example 82] | < 5 µM | < 5 µM | < 5 µM | – | – | –
16 | CC(C)c1n[nH]cc1-c1ccnc(NCc2c(F)cccc2F)n1 [Example 157] | – | – | – | < 1 µM | < 1 µM | < 5 µM
17 | CC(C)c1n[nH]cc1-c1ccnc(N[C@H](C)c2ccccn2)n1 [Example 187] | – | – | – | < 5 µM | < 0.1 µM | < 5 µM
18 | CC(CCCC(C)(C)O)Nc1nccc(-c2c[nH]nc2C(C)C)n1 (stereo not drawn) [Example 145] | – | – | – | < 1 µM | < 0.5 µM | < 5 µM
19 | Cc1n[nH]cc1-c1ccnc(NC2CCN(c3ccccc3)CC2)n1 [Example 136] | – | – | – | < 5 µM | < 0.5 µM | < 5 µM
20 | CC(C)c1n[nH]cc1-c1ccnc(NCc2ccccc2OC(F)(F)F)n1 [Example 158] | – | – | – | < 5 µM | < 15 µM | ≥ 15 µM

Row | Compound | IC50 (hCDK1/B; Table 1) | IC50 (CDK4; Table 1, read-out: CDK4 HTRF) | IC50 (CDK2 cyA; [1]) | IC50 (hCDK1/B; Table 2) | IC50 (CDK4; [2]) | IC50 (CDK2 cyA; [3])
21 | COCCNc1cc(-c2cn[nH]c2C(C)C)ccn1 [Example 5] | < 10 µM | < 5 µM | < 10 µM | – | – | –
22 | CC(C)c1[nH]ncc1-c1ccnc(NC(CO)C(C)C)c1 (stereo not drawn) [Example 46] | < 10 µM | < 0.5 µM | < 15 µM | – | – | –
23 | CC(CN(C)C)Nc1nccc(-c2c[nH]nc2C(C)C)n1 (stereo not drawn) [Example 143] | – | – | – | < 10 µM | < 0.5 µM | ≥ 15 µM
24 | FC(F)(F)c1ccccc1CNc1cc(-c2cn[nH]c2C2CCCC2)ccn1 [Example 63] | < 5 µM | < 10 µM | < 5 µM | – | – | –
25 | CN1CCC(Nc2cc(-c3cn[nH]c3C3CC3)ccn2)CC1 [Example 80] | < 15 µM | < 0.5 µM | ≥ 15 µM | – | – | –
26 | c1cc(-c2cn[nH]c2C2CCCC2)cc(NC2CC2)n1 [Example 53] | < 5 µM | < 0.5 µM | < 1 µM | – | – | –
27 | CCCNc1cc(-c2cn[nH]c2C(C)C)ccn1 [Example 44] | < 5 µM | < 0.5 µM | < 5 µM | – | – | –
28 | CC(C)c1[nH]ncc1-c1ccnc(NC(C)c2ccccc2)c1 (stereo not drawn) [Example 27] | < 5 µM | < 1 µM | < 5 µM | – | – | –
29 | c1cc(-c2cn[nH]c2C2CCCC2)cc(NCC2CC2)n1 [Example 57] | < 5 µM | < 1 µM | < 5 µM | – | – | –
30 | CC(C)c1n[nH]cc1-c1nc(NC2CCN(C)CC2)ncc1Br [Example 180] | – | – | – | < 5 µM | < 1 µM | < 5 µM
31 | CCC(C)c1[nH]ncc1-c1ccnc(NCc2ccccc2C)c1 (stereo not drawn) [Example 81] | < 5 µM | < 1 µM | < 5 µM | – | – | –
32 | CC(C)c1n[nH]cc1-c1ccnc(NC2CCN(C(=O)OC(C)(C)C)CC2)n1 [Example 140] | – | – | – | < 0.5 µM | < 0.05 µM | < 1 µM
33 | Cc1n[nH]cc1-c1ccnc(NC2CCN(Cc3ccccc3)C2)n1 (stereo not drawn) [Example 114] | – | – | – | < 10 µM | < 1 µM | < 10 µM
34 | Cc1n[nH]cc1-c1ccnc(NC2CCCNC2)n1 (stereo not drawn) [Example 138] | – | – | – | < 5 µM | < 1 µM | < 5 µM
35 | CC(C)c1[nH]ncc1-c1ccnc(NCC2CCCO2)c1 (stereo not drawn) [Example 13] | < 5 µM | < 5 µM | < 10 µM | – | – | –
36 | CC(C)c1n[nH]cc1-c1ccnc(NCCN2CCCCC2)n1 [Example 173] | – | – | – | < 15 µM | < 0.5 µM | ≥ 15 µM
37 | Cc1n[nH]cc1-c1ccnc(NCC(C)C)n1 [Example 92] | – | – | – | < 5 µM | < 5 µM | < 5 µM
38 | CC(C)CNc1cc(-c2cn[nH]c2C2CCCC2)ccn1 [Example 56] | < 5 µM | < 0.5 µM | < 1 µM | – | – | –
39 | c1ccc2c(c1)CC(Nc1cc(-c3cn[nH]c3C3CC3)ccn1)C2 [Example 69] | < 1 µM | < 0.1 µM | < 1 µM | – | – | –
40 | CC(C)c1[nH]ncc1-c1ccnc(NCCCn2ccnc2)c1 [Example 41] | < 0.5 µM | < 5 µM | < 1 µM | – | – | –

Row | Compound | IC50 (hCDK1/B; Table 1) | IC50 (CDK4; Table 1, read-out: CDK4 HTRF) | IC50 (CDK2 cyA; [1]) | IC50 (hCDK1/B; Table 2) | IC50 (CDK4; [2]) | IC50 (CDK2 cyA; [3])
41 | CC(C)c1n[nH]cc1-c1ccnc(NCc2ccccc2F)n1 [Example 165] | – | – | – | < 0.5 µM | < 1 µM | < 0.5 µM
42 | CCC(CC)c1[nH]ncc1-c1ccnc(NCc2ccccc2C)c1 [Example 71] | < 5 µM | < 0.5 µM | < 5 µM | – | – | –
43 | CC(C)c1[nH]ncc1-c1ccnc(NCc2cc(F)cc(F)c2)c1 [Example 38] | < 5 µM | < 1 µM | < 5 µM | – | – | –
44 | CC(C)c1n[nH]cc1-c1ccnc(N[C@H]2CCc3ccccc32)n1 [Example 175] | – | – | – | < 5 µM | < 1 µM | < 5 µM
45 | CCC(CC)c1[nH]ncc1-c1ccnc(NC2CCN(C)CC2)c1 [Example 73] | < 5 µM | < 1 µM | < 10 µM | – | – | –
46 | Cc1cccc(CNc2cc(-c3cn[nH]c3C3CCCC3)ccn2)c1 [Example 62] | < 5 µM | < 5 µM | < 5 µM | – | – | –
47 | Cc1ccccc1CNc1cc(-c2cn[nH]c2C(C)C)ccn1 [Example 14, [4-(5-Isopropyl-1H-pyrazol-4-yl)-pyridin-2-yl]-(2-methyl-benzyl)-amine] | < 5 µM | < 0.1 µM | < 5 µM | – | – | –
48 | CCC(C)Nc1cc(-c2cn[nH]c2C(C)C)ccn1 (stereo not drawn) [Example 26] | < 5 µM | < 0.5 µM | < 1 µM | – | – | –
49 | CC(C)c1n[nH]cc1-c1ccnc(NC2CCN(c3ccccc3)CC2)n1 [Example 172] | – | – | – | < 0.5 µM | < 0.05 µM | < 0.5 µM
50 | Cc1n[nH]cc1-c1ccnc(NC2CCCCCC2)n1 [Example 87] | – | – | – | < 5 µM | < 1 µM | < 5 µM
51 | CC(C)c1[nH]ncc1-c1ccnc(NC2CCCCCC2)c1 [Example 40] | < 1 µM | < 0.5 µM | < 0.5 µM | – | – | –
52 | CC(C)c1n[nH]cc1-c1ccnc(NCCCN(C)c2ccccc2)n1 [Example 142] | – | – | – | < 1 µM | < 5 µM | < 5 µM
53 | CC(C)c1n[nH]cc1-c1ccnc(NC2CC(C)(C)c3ccccc32)n1 (stereo not drawn) [Example 191] | – | – | – | < 5 µM | < 0.5 µM | < 5 µM
54 | c1cc(-c2cn[nH]c2C2CCCC2)cc(NC2CCC2)n1 [Example 52] | < 5 µM | < 0.5 µM | < 0.5 µM | – | – | –
55 | CC(C)c1n[nH]cc1-c1ccnc(NCc2ccccc2C(F)(F)F)n1 [Example 154] | – | – | – | < 5 µM | < 5 µM | < 5 µM
56 | Cc1ccc(CNc2cc(-c3cn[nH]c3C(C)C)ccn2)cc1 [Example 28] | < 5 µM | < 5 µM | < 5 µM | – | – | –
57 | CCCCNc1cc(-c2cn[nH]c2C(C)C)ccn1 [Example 10] | < 5 µM | < 0.5 µM | < 5 µM | – | – | –
58 | Cc1ccccc1CNc1cc(-c2cn[nH]c2C2CCCC2)ccn1 [Example 60] | < 5 µM | < 0.5 µM | < 5 µM | – | – | –
59 | CC(C)c1[nH]ncc1-c1ccnc(NCCc2ccccc2)c1 [Example 37] | < 5 µM | < 0.5 µM | < 1 µM | – | – | –
